Source: US20100331545A1, “REGULATOR FOR SIGNALING TOLL-LIKE RECEPTOR, WHICH COMPRISES CATHEPSIN INHIBITOR AS ACTIVE INGREDIENT” (NIPPON CHEMIPHAR CO., LTD., priority 2007, published 2010)

Tests used:
TLR7, 8 = assay: Cytokine mRNA expression in R837-treated DCs derived from mouse spleen; type: cell-based; conditions: R837 (TLR7, 8 ligand)-treated mouse spleen DCs, total RNA 3 hours after stimulation
Description: (§1) Quantitative RT-PCR was performed as described in K. Sato et al., Nat Med 12, 1410 (2006). The following primers were used.
(§2) Spleens were excised from male mice of 8 to 10 weeks. Dendritic cells (DCs) were separated from the spleens using pan DC microbeads (Miltenyi Biotec, Bergisch Gladbach, Germany), according to the manufacturer's instructions.
(§3) Total RNA was extracted 3 hours after stimulation.

TLR3 = assay: Cytokine mRNA expression in poly(I:C)-treated DCs derived from mouse spleen; type: cell-based; conditions: poly(I:C) (TLR3 ligand)-treated mouse spleen DCs, total RNA 3 hours after stimulation
Description: as §1, §2, §3

[1] = system: rat model of adjuvant arthritis; assay: Rat adjuvant arthritis, oral NC-2300 compared with alendronate; type: in vivo; conditions: for bone erosion in the ankle (radiological analysis): administered daily day 0 to day 35, soft X-rays of ankle joints day 36
Description: Rats were injected with complete Freund's adjuvant on day 0.
Bone mineral density of the proximal tibia assessed by pQCT (day 36).
Assessment for hind paws of adjuvant arthritis rats treated with NC-2300 or vehicle.
Adjuvant arthritis in hind paw administered with NC-2300 or vehicle was evaluated.

TLR9 [2] = assay: Cytokine mRNA expression in CpG-treated BM-DCs (quantitative RT-PCR); type: cell-based, mouse
Description: as §1
The level of mRNA expression was normalized with that of β-actin expression.
BM-DCs were generated by either GM-CSF or Flt3L. Total RNA was extracted 6 hours after CpG stimulation.

TLR9 [3] = assay: CpG-stimulated cytokine production by BM-DCs (ELISA); type: cell-based, mouse; conditions: CpG (TLR9 ligand), 24 hours
Description: (§4) Immature DCs were generated from mouse BM, as described in K. Inaba et al., J. Exp. Med. 176,1693 (1992). In brief, BM cells were cultured with 10 ng ml^−1 murine GM-CSF or 10 ng ml^−1 murine Flt3L in RPMI 1640 medium supplemented with 10% FBS for 6 days. Loosely adherent cells were harvested by gentle pipetting and were used as BM-derived DCs. To obtain BM-derived macrophages, BM cells were cultured with 10 ng ml^−1 M-CSF in α-MEM medium supplemented with 10% FBS for 2 days, and adherent cells were used as BM-derived macrophages. For the pathogen-associated molecular pattern (PAMP) stimulation, cells were plated at 5×10^5 cells ml^−1 in 24-well plates, and cultured with 10 ng ml^−1 Lipopolysaccharide (LPS), 30 μg ml^−1 Peptidoglycan Type I (PGN), or Endotoxin-free phosphorothioate-stabilized CpG oligodeoxynucleotides (CpG ODN).
(§5) Cells were cultured for 3-24 hours with or without PAMPs or plate-bound anti-CD3/CD28 antibodies in the presence or absence of NC-2300, and concentration of cytokines in the culture supernatant was determined by ELISA kits, according to the manufacturer's instructions.
BM-DCs were stimulated with peptidoglycan (PGN), lipopolysaccharide (LPS), and unmethylated CpG oligodeoxynucleotides (CpG) for 24 hours and the culture super-natants were subjected to ELISA. *P<0.05, ***P<0.001 (versus control).

CD40, CD80 and CD86 = assay: TLR9-mediated expression of cell surface molecules in DCs (flowcytometry); type: cell-based, mouse; conditions: stimulated 48 hours
Description: (§6) Before staining, cells were incubated with mouse BD Fc Block to minimize nonspecific staining. The cells were then stained with fluorophore-conjugated monoclonal Abs. The following fluorophore-conjugated mAbs were used; Allophycocyanin (APC)-conjugated anti-CD3e (145-2C11), fluorescein isothiocyanate (FITC)-conjugated anti-CD4 (RM4-5), CD11c (HL3), CD40 (3/23), CD80 (16-10Al), CD86 (GL1), I-A^d (AMS-32.1), and Phycoerythrin (PE)-conjugated anti-mouse IL-17 (TC11-18H10). For intracellular cytokine staining, cells were collected and left unstimulated or were stimulated for 5 hours with PMA (40 ng ml^−1) and ion-omycin (4 μg ml^−1) in the presence of GolgiPlug at the recommended concentration. Standard intracellular cytokine staining was performed as follows; cells were first stained extracellularly with APC-conjugated anti-CD3 and FITC-conjugated anti-CD4 mAbs, then were fixed and permeabilized with Cytofix/Cytoperm solution, and finally were stained intracellularly with PE-conjugated anti-IL-17 mAb. Flowcytometric analysis was performed by FACScan with CellQuest software or FACSCanto II with Diva software.
DCs were stimulated with CpG or LPS for 48 hours and analyzed by flowcytometry.

[4] = system: extracellular-signal regulated kinases 1/2 (ERK 1/2); assay: ERK 1/2 phosphorylation in stimulated DCs (immunoblot); type: cell-based, mouse; conditions: CpG-induced
Description: DCs were cultured in low serum medium (0.1% FBS) for 4 hours to reduce background and then stimulated with CpG ODN or LPS in the presence or absence of NC-2300. The stimulated cells were subjected to immunoblot analyses as described in K. Sato et al., Nat Med12, 1410 (2006), using Abs for ERK-1/2, phosphorylated ERK-1/2 and β-actin.

BM-derived macrophages = assay: Activation of BM-derived macrophages stimulated by PAMPs; type: cell-based, mouse
Description: as §4, §5

[5] = system: T cells stimulated with anti-CD3/CD28 antibodies; assay: Cell proliferation assay of T cells stimulated with anti-CD3/CD28 antibodies; type: cell-based, mouse
Description: Cell proliferation was evaluated by using a Cell Proliferation ELISA kit according to the manufacturer's protocol.

BM-DCs = assay: In vitro development of BM-DCs; type: cell-based, mouse
Description: as §4

cathepsin K = molecular target: T1, cathepsin K (Mus musculus, UniProt P55097); assay: Enzymatic activity of cathepsin K in BM-DCs (substrate Z-Gly-Pro-Arg-MCA); type: cell-based; conditions: BM-DCs pre-treated 24 hours, cell lysates
T1 construct: cell lysates were subjected to enzymatic assay; endogenous in cells; host or cells: bone marrow-derived dendritic cells (BM-DCs): cells pre-treated with NC-2300, then lysed
T1 sequence (P55097 115-329): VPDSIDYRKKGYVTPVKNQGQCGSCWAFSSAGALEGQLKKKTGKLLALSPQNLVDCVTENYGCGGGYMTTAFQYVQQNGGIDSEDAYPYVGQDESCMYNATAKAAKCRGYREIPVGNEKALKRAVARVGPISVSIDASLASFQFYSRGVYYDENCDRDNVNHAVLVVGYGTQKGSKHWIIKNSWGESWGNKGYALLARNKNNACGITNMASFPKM
Description: BM-DCs were pre-treated with or without the cathepsin K inhibitor NC-2300 for 24 hours and washed extensively with cold phosphate-buffered saline (PBS), and cell lysates were subjected to enzymatic assay. Cathepsin K activity was measured with cathepsin K specific substrate, Z-Gly-Pro-Arg-MCA (GPR).

[6] = system: T cells stimulated with anti-CD3/CD28 antibodies; assay: IL-2 production of T cells stimulated with anti-CD3/CD28 antibodies (ELISA); type: cell-based, mouse
Description: as §5

Th17 cells = assay: Th17 cell induction by splenic DCs cocultured with CD4+ T cells (intracellular staining of IL-17); type: cell-based, mouse; conditions: 3 days coculture
Description: as §6
CD4-positive T cells and splenic DCs were isolated from the spleen using a magnetic sorter and anti-CD4 microbeads. These cells were stimulated with plate-bound anti-CD3 and anti-CD28 mAbs (1 μg ml^−1 each) for 3 days in the presence of 2 ng ml^−1 human TGF-β, 10 μg ml^−1 each of anti-IFN-γ and anti-IL-4 mAbs, with or without CpG ODN, LPS or PGN.
Cathepsin K inactivation results in defective Th17 polarization in response to CpG, but not LPS or PGN were measured. CD4^+T cells and DCs were sorted from the spleen, and cocultured in the presence of CpG, LPS, or PGN for 3 days. After the culture, percentages of CD3e^+CD4^+IL-17^+ cells were analyzed by flowcytometry.

cathepsin K−/− DCs = assay: Cytokine production in WT or cathepsin K−/− DCs in response to LPS or CpG, with chloroquine; type: cell-based, mouse; conditions: chloroquine added 1 hour before the stimulation; cytokines IL-12 and IL-6
Description: as §5
Cytokine production in WT or cathepsin K^−/− DCs in response to LPS or CpG was measured. Chloroquine was added 1 hour before the stimulation to suppress endosomal acidification. N.D., not detected. *P<0.05, ***P<0.001 (versus WT).

[7] = arthritic rats, high dose treatment, day 35
[8] = BM-DCs, total RNA 6 hours after CpG stimulation

CCOC(=O)[C@H]1O[C@@H]1C(=O)N[C@@H](CC(C)C)C(=O)NCCC(C)C [E64d, reference compound]
cytokine mRNA expression (IFN-1) (TLR7, 8): suppressed | cytokine mRNA expression (IFN-1) (TLR3): suppressed

CC(C)COC[C@H](CC(C)C)NC(=O)[C@H]1O[C@@H]1C(=O)[O-].[Na+] [NC-2300, monosodium (2S,3S)-3-[[(1S)-1-isobutoxymethyl-3-methylbutyl]carbamoyl]oxirane-2-carboxylate]
locomotion activity: arthritis-induced incapacitation of rearing behavior [1, 7]: significantly ameliorated the arthritis-induced incapacitation of rearing behavior | locomotion activity: severity of the hind limb lameness [1, 7]: reduced the severity of the hind limb lameness | onset rate of arthritis ([1]; rat adjuvant arthritis): without affecting the onset rate of arthritis | paw swelling in the course of arthritis ([1]; rat adjuvant arthritis, hind paws): ameliorated paw swelling | inflammation when administered after the onset of disease ([1]; rat adjuvant arthritis, administered after the onset of disease): ameliorated inflammation | bone erosion in the ankle (radiological analysis) ([1]; rat adjuvant arthritis): markedly suppressed bone erosion | periarticular osteoporosis in the proximal tibia (bone mineral density) ([1]; rat adjuvant arthritis, pQCT day 36): comparable inhibitory effect | cytokine mRNA expression (IFN-1) (TLR7, 8): suppressed | CpG-induced expression of IL-6 at the mRNA level (TLR9 [2]; [8]): downregulated | CpG-induced expression of IL-12 at the mRNA level (TLR9 [2]; [8]): downregulated | CpG-induced expression of IL-23 at the mRNA level (TLR9 [2]; [8]): downregulated | IFN production by Flt3L-induced DCs in response to CpG (TLR9 [2]; Flt3L-induced DCs, CpG): suppressed | production of IL-12 by DCs (TLR9 [3]): significantly inhibited | production of IL-23 by DCs (TLR9 [3]): significantly inhibited | cytokine mRNA expression (IFN-1) (TLR3): suppressed | expression of CD40 in DCs (CD40, CD80 and CD86): reduced expression | expression of CD80 in DCs (CD40, CD80 and CD86): reduced expression | expression of CD86 in DCs (CD40, CD80 and CD86): reduced expression | phosphorylation of ERK 1/2 in DCs [4]: Suppression | activation of BM-derived macrophages (BM-derived macrophages): no significant effects | proliferation of T cells [5]: no effect | in vitro development of BM-DCs (BM-DCs): no effects | cathepsin K activity in DCs (cathepsin K): inhibited by NC-2300 in a dose-dependent manner | IL-2 production of T cells [6]: no effect | ability of DCs to induce Th17 cells (Th17 cells; DCs stimulated with CpG): markedly inhibited | ability of DCs to induce Th17 cells (Th17 cells; DCs stimulated with LPS): only when DCs were stimulated with CpG | ability of DCs to induce Th17 cells (Th17 cells; DCs stimulated with PGN): only when DCs were stimulated with CpG

NCCCC(O)(P(=O)(O)O)P(=O)(O)O [alendronate, reference compound]
bone erosion in the ankle (radiological analysis) ([1]; rat adjuvant arthritis): did not efficiently suppress bone erosion

CCN(CC)CCCC(C)Nc1ccnc2cc(Cl)ccc12 (stereo not shown) [chloroquine]
cytokine induction in cathepsin K−/− DCs (cathepsin K−/− DCs): further suppressed
